The source of these data is patent publication US7378375B1, “Substituted pyridine herbicides” (Syngenta Crop Protection, Inc., priority 2000, dated 2008).

Experiment [1] relates to Monocotyledonous and dicotyledonous test plants. The experiment can be described thus: Post-emergence herbicidal action, greenhouse pot test, sprayed at the 2- to 3-leaf stage, 9-level rating after 2 to 3 weeks. Conditions: 250 g/ha, rated after 2 to 3 weeks, 9-level scale. It is filed as in vivo. Summed up: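 Plants grown in standard soil in pots; test substances sprayed at the 2- to 3-leaf stage at optimum dosage (500 l water/ha) as aqueous suspension or emulsion from formulated concentrates. Plants then kept in the greenhouse under optimum conditions; rated after 2 to 3 weeks on a 9-level scale (1=complete damage, 9=no effect).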

Experiment [2] has the same test system. The experiment in a line: Herbicidal action before emergence of the plants (pre-emergence action), greenhouse pot test, 9-level rating after 4 weeks. It is filed as in vivo. Conditions: 250 g/ha, rated after 4 weeks, 9-level scale. Summed up: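 Compounds applied pre-emergence as a spray (500 l water/ha) of aqueous suspension or emulsion onto soil immediately after sowing mono- and dicot species in pots. Greenhouse-grown; damage rated after 4 weeks on a 9-level scale (1=complete damage, 9=no effect).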

On to `CCCCCCCC(=O)OCc1nc(C(F)(F)F)ccc1C(=O)C1=C(O)C2CCC(C2)C1=O` (centres unmarked) [A843-B52], for which, in experiment [1], the “Post-emergence action rating, Abutilon” value amounted to 3; the “Post-emergence action rating, Amaranth” value came out at 3; the “Post-emergence action rating, Chenop.” value is given as 1; the “Post-emergence action rating, Digitaria” value was 3. For the same compound, in experiment [1], the “Post-emergence action rating, Echino.” value came to 3; the “Post-emergence action rating, Ipopur.” value came out at 6; the “Post-emergence action rating, Panicum” value is reported as 2; the “Post-emergence action rating, Xanth.” value is given as 3. In addition, in experiment [2], the “Pre-emergence action rating, Abutilon” value is given as 1; the “Pre-emergence action rating, Amaranthus” value is 1; the “Pre-emergence action rating, Chenop.” value was 1; the “Pre-emergence action rating, Digitaria” value is 2. For the same compound, in experiment [2], the “Pre-emergence action rating, Echino.” value is on record as 2 and the “Pre-emergence action rating, Panicum” value was determined as 1.

As to `COCCOCc1nc(C(F)(F)F)ccc1C(=O)C1=C(O)C2CCC(C2)C1=O` (centres unmarked) [A10-B52, (H3), 4-Hydroxy-3-[2-(2-methoxyethoxymethyl)-6-trifluoromethylpyridine-3-carbonyl]-bicyclo[3.2.1]oct-3-en-2-one], in experiment [1], the “Post-emergence action rating, Abutilon” value turned out to be 1; the “Post-emergence action rating, Amaranth” value stood at 2; the “Post-emergence action rating, Chenop.” value was 1; the “Post-emergence action rating, Digitaria” value is 1. Besides, in experiment [1], the “Post-emergence action rating, Echino.” value is 2; the “Post-emergence action rating, Ipopur.” value was found to be 2; the “Post-emergence action rating, Panicum” value amounted to 1; the “Post-emergence action rating, Xanth.” value is on record as 2. Also, in experiment [2], the “Pre-emergence action rating, Abutilon” value worked out at 1; the “Pre-emergence action rating, Amaranthus” value is recorded as 1; the “Pre-emergence action rating, Chenop.” value stood at 1; the “Pre-emergence action rating, Digitaria” value is recorded as 1. For the same compound, in experiment [2], the “Pre-emergence action rating, Echino.” value is listed as 1 and the “Pre-emergence action rating, Panicum” value came to 1.

For `O=C(C1=C(O)C2CCC(C2)C1=O)c1ccc(C(F)(F)F)nc1COCC1CC1` (centres unmarked) [A56-B52], in experiment [1], the “Post-emergence action rating, Abutilon” value came out at 2; the “Post-emergence action rating, Amaranth” value was 1; the “Post-emergence action rating, Chenop.” value is given as 1; the “Post-emergence action rating, Digitaria” value is given as 2. Also, in experiment [1], the “Post-emergence action rating, Echino.” value turned out to be 2; the “Post-emergence action rating, Ipopur.” value is 2; the “Post-emergence action rating, Panicum” value was determined as 1; the “Post-emergence action rating, Xanth.” value was 2. In experiment [2], the “Pre-emergence action rating, Abutilon” value amounted to 3; the “Pre-emergence action rating, Amaranthus” value was 1; the “Pre-emergence action rating, Chenop.” value is reported as 1; the “Pre-emergence action rating, Digitaria” value is 2. Besides, in experiment [2], the “Pre-emergence action rating, Echino.” value is listed as 1 and the “Pre-emergence action rating, Panicum” value stood at 1.

Turning to `COc1cc(OC)nc(SCc2nc(C(F)(F)F)ccc2C(=O)C2=C(O)C3CCC(C3)C2=O)n1` (centres unmarked) [A830-B52], in experiment [1], the “Post-emergence action rating, Abutilon” value came to 5; the “Post-emergence action rating, Amaranth” value worked out at 4; the “Post-emergence action rating, Chenop.” value is listed as 4; the “Post-emergence action rating, Digitaria” value came out at 9. Also, in experiment [1], the “Post-emergence action rating, Echino.” value was determined as 3; the “Post-emergence action rating, Ipopur.” value came to 5; the “Post-emergence action rating, Panicum” value is 4; the “Post-emergence action rating, Xanth.” value is reported as 4. Also, in experiment [2], the “Pre-emergence action rating, Abutilon” value came out at 5; the “Pre-emergence action rating, Amaranthus” value is reported as 4; the “Pre-emergence action rating, Chenop.” value is 4; the “Pre-emergence action rating, Digitaria” value was found to be 9. For the same compound, in experiment [2], the “Pre-emergence action rating, Echino.” value worked out at 3 and the “Pre-emergence action rating, Panicum” value was found to be 4.
